{"source": "patent US9757393B2", "about": "(priority 2015, dated 2017)", "key": {"G6 Pase mRNA": {"test_system": "G6 Pase mRNA", "assay": "Semiquantitative RT-PCR, liver tissue: G6 Pase", "assay_type": "in vivo, C57BL/6J mice", "details": "HFD-fed mice", "procedure": "(§1) Experimental Animals: the experiments are conducted under the guidelines of the Institutional Animal Care and Use Committee of Central Taiwan University of Science and Technology. As previously described, four-week-old male C57BL/6J mice (n=63) is purchased from the National Laboratory Animal Breeding and Research Center, Ministry of Science and Technology. After 1-week of acclimatization, mice are designed to initiate the study, and the study lasts for 12 weeks. […] The CON group and high-fat control (HF) group are given with vehicle only. The low-fat diet consisted of fat 10%, whereas the high-fat diet (HFD) consisted of fat 45% (of total energy, % kcal). The compositions of the experimental diets are shown as described. At the end of the study, food is derived from the animals (from 10 p.m. to 10 a.m.). On the next day, the mice are sacrificed, and blood and tissue are collected for analysis. Livers, skeletal muscles, and white adipose tissues (WATs) (including epididymal, mesenteric and retroperitoneal WAT) are excised and weighed, and then immediately stored in a freezer at −80° C. Heparin (30 units/mL) (Sigma) is added to blood samples. Plasma samples are collected by centrifugation at 1600 g for 15 min at 4° C. within 30 min, and plasma is obtained for insulin and leptin level analysis.\n(§2) The experiment is performed as in a previously described protocol. Total RNA from the liver tissue is isolated with a Trizol reagent (Molecular Research Center, Inc., Cincinnati, Ohio, USA) according to the manufacturer's directions. Total RNA (1 μg) is reverse transcribed to cDNA with 5 μL of Moloney murine leukemia virus reverse transcriptase (Epicenter, Madison, Wis., USA) as a previously described protocol. […] The relative density of the band is evaluated using AlphaDigiDoc 1201 software (Alpha Innotech Co., San Leandro, Calif., USA). All of the measured PCR products are normalized to the amount of cDNA of GAPDH in each sample."}, "HFD-fed C57BL/6J mice [1]": {"test_system": "HFD-fed C57BL/6J mice", "assay": "Histopathology examination of epididymal WAT and liver tissue", "assay_type": "in vivo", "details": "for ballooning degeneration of hepatocyte: liver tissue; for average area of adipocytes (epididymal WAT): oral gavage daily for 4 weeks", "procedure": "as §1\nA portion of the collected epididymal WAT and liver tissue is fixed with formalin (200 g/kg) neutral buffered solution and embedded in paraffin. Sections (8 μm) are cut and stained with hematoxylin and eosin. A microscope (Leica, DM2500) and Leica Digital camera (DFC-425-C) are used for microscopic examination and images taken, respectively."}, "adiponectin mRNA": {"test_system": "adiponectin mRNA", "assay": "Semiquantitative RT-PCR, liver tissue: adiponectin", "assay_type": "in vivo, C57BL/6J mice", "details": "HFD-fed mice, 40 mg/kg/day", "procedure": "as §1, with “Heparin (30 units/mL) (Sigma) is added to blood samples. Plasma samples are collected by centrifugation at 1600 g for 15 min at 4° C. within 30 min, and plasma is obtained for insulin and leptin level analysis.” left out\nThe experiment is performed as in a previously described protocol. […] The relative density of the band is evaluated using AlphaDigiDoc 1201 software (Alpha Innotech Co., San Leandro, Calif., USA). All of the measured PCR products are normalized to the amount of cDNA of GAPDH in each sample."}, "HFD-fed C57BL/6J mice [2]": {"test_system": "HFD-fed C57BL/6J mice", "assay": "Body weight, food intake and tissue weight in HFD-fed mice", "assay_type": "in vivo", "details": "for Absolute Tissue Weight BAT / Absolute Tissue Weight EWAT / Absolute Tissue Weight Liver / Absolute Tissue Weight MWAT / Absolute Tissue Weight RWAT / Absolute Tissue Weight Skeletal muscle / weight gain: oral gavage daily for 4 weeks; for weight of visceral fat: vs HF group", "procedure": "as §1\nBody Weight, Food Intake and Tissue Weight. Throughout the embodiment, body weight and food intake are daily recorded at the same time. Body weight gain is defined as the difference between 1 day and the next day. The pellet food is weighed and placed in a cage food container. After 24 h, the remaining food is weighed and the crumbs are collected as much as possible. Based on the difference between 1 day and the next day, the daily food intake is calculated."}, "PEPCK mRNA": {"test_system": "PEPCK mRNA", "assay": "Semiquantitative RT-PCR, liver tissue: PEPCK", "assay_type": "in vivo, C57BL/6J mice", "details": "HFD-fed mice", "procedure": "as §1, §2"}, "apo C-III mRNA": {"test_system": "apo C-III mRNA", "assay": "Semiquantitative RT-PCR, liver tissue: apo C-III", "assay_type": "in vivo, C57BL/6J mice", "details": "HFD-fed mice", "procedure": "as §1, §2"}, "DGAT2 mRNA": {"test_system": "DGAT2 mRNA", "assay": "Semiquantitative RT-PCR, liver tissue: DGAT2", "assay_type": "in vivo, C57BL/6J mice", "details": "HFD-fed mice", "procedure": "as §1, §2"}}, "data": [{"compound": "CC(C)[C@@H](C)C=C[C@@H](C)[C@H]1CC[C@H]2C3=CCC4C[C@@H](O)CC[C@]4(C)C3=CC[C@]12C", "note": "(stereo partly drawn) [ergostatrien-3β-ol, ergosta-7,9(11),22-trien-3β-ol]", "values": [{"measurement": "mRNA level of G6 Pase", "setting": "G6 Pase mRNA; 10 mg/kg/day", "result": "decreased"}, {"measurement": "mRNA level of G6 Pase", "setting": "G6 Pase mRNA; 20 mg/kg/day", "result": "decreased"}, {"measurement": "mRNA level of G6 Pase", "setting": "G6 Pase mRNA; 40 mg/kg/day", "result": "decreased"}, {"measurement": "ballooning degeneration of hepatocyte", "setting": "HFD-fed C57BL/6J mice [1]; 10 mg/kg/day", "result": "decreases"}, {"measurement": "ballooning degeneration of hepatocyte", "setting": "HFD-fed C57BL/6J mice [1]; 20 mg/kg/day", "result": "decreases"}, {"measurement": "ballooning degeneration of hepatocyte", "setting": "HFD-fed C57BL/6J mice [1]; 40 mg/kg/day", "result": "decreases"}, {"measurement": "average area of adipocytes (epididymal WAT)", "setting": "HFD-fed C57BL/6J mice [1]; 10 mg/kg/day", "result": "4204.0±131.5", "unit": "μm2"}, {"measurement": "average area of adipocytes (epididymal WAT)", "setting": "HFD-fed C57BL/6J mice [1]; 20 mg/kg/day", "result": "3535.7±340.2", "unit": "μm2"}, {"measurement": "average area of adipocytes (epididymal WAT)", "setting": "HFD-fed C57BL/6J mice [1]; 40 mg/kg/day", "result": "3458.9±30.7", "unit": "μm2"}, {"measurement": "mRNA level of adiponectin", "setting": "adiponectin mRNA", "result": "increase"}, {"measurement": "food intake (consumption of high-fat diet)", "setting": "HFD-fed C57BL/6J mice [2]; all treated groups compared with HF mice", "result": "similarly"}, {"measurement": "Absolute Tissue Weight BAT", "setting": "HFD-fed C57BL/6J mice [2]; 10 mg/kg/day", "result": "0.160 ± 0.007", "unit": "g"}, {"measurement": "Absolute Tissue Weight EWAT", "setting": "HFD-fed C57BL/6J mice [2]; 10 mg/kg/day", "result": "0.853 ± 0.031", "unit": "g"}, {"measurement": "Absolute Tissue Weight Liver", "setting": "HFD-fed C57BL/6J mice [2]; 10 mg/kg/day", "result": "0.813 ± 0.025", "unit": "g"}, {"measurement": "Absolute Tissue Weight MWAT", "setting": "HFD-fed C57BL/6J mice [2]; 10 mg/kg/day", "result": "0.276 ± 0.032", "unit": "g"}, {"measurement": "Absolute Tissue Weight RWAT", "setting": "HFD-fed C57BL/6J mice [2]; 10 mg/kg/day", "result": "0.281 ± 0.016", "unit": "g"}, {"measurement": "Absolute Tissue Weight Skeletal muscle", "setting": "HFD-fed C57BL/6J mice [2]; 10 mg/kg/day", "result": "0.781 ± 0.034", "unit": "g"}, {"measurement": "weight gain", "setting": "HFD-fed C57BL/6J mice [2]; 10 mg/kg/day", "result": "1.30 ± 0.39", "unit": "g"}, {"measurement": "Absolute Tissue Weight BAT", "setting": "HFD-fed C57BL/6J mice [2]; 20 mg/kg/day", "result": "0.143 ± 0.016", "unit": "g"}, {"measurement": "Absolute Tissue Weight EWAT", "setting": "HFD-fed C57BL/6J mice [2]; 20 mg/kg/day", "result": "0.774 ± 0.057", "unit": "g"}, {"measurement": "Absolute Tissue Weight Liver", "setting": "HFD-fed C57BL/6J mice [2]; 20 mg/kg/day", "result": "0.819 ± 0.025", "unit": "g"}, {"measurement": "Absolute Tissue Weight MWAT", "setting": "HFD-fed C57BL/6J mice [2]; 20 mg/kg/day", "result": "0.276 ± 0.032", "unit": "g"}, {"measurement": "Absolute Tissue Weight RWAT", "setting": "HFD-fed C57BL/6J mice [2]; 20 mg/kg/day", "result": "0.283 ± 0.025", "unit": "g"}, {"measurement": "Absolute Tissue Weight Skeletal muscle", "setting": "HFD-fed C57BL/6J mice [2]; 20 mg/kg/day", "result": "1.167 ± 0.045", "unit": "g"}, {"measurement": "weight gain", "setting": "HFD-fed C57BL/6J mice [2]; 20 mg/kg/day", "result": "1.13 ± 0.20", "unit": "g"}, {"measurement": "Absolute Tissue Weight BAT", "setting": "HFD-fed C57BL/6J mice [2]; 40 mg/kg/day", "result": "0.144 ± 0.013", "unit": "g"}, {"measurement": "Absolute Tissue Weight EWAT", "setting": "HFD-fed C57BL/6J mice [2]; 40 mg/kg/day", "result": "0.736 ± 0.070", "unit": "g"}, {"measurement": "Absolute Tissue Weight Liver", "setting": "HFD-fed C57BL/6J mice [2]; 40 mg/kg/day", "result": "0.796 ± 0.041", "unit": "g"}, {"measurement": "Absolute Tissue Weight MWAT", "setting": "HFD-fed C57BL/6J mice [2]; 40 mg/kg/day", "result": "0.244 ± 0.024", "unit": "g"}, {"measurement": "Absolute Tissue Weight RWAT", "setting": "HFD-fed C57BL/6J mice [2]; 40 mg/kg/day", "result": "0.243 ± 0.041", "unit": "g"}, {"measurement": "Absolute Tissue Weight Skeletal muscle", "setting": "HFD-fed C57BL/6J mice [2]; 40 mg/kg/day", "result": "1.351 ± 0.153", "unit": "g"}, {"measurement": "weight gain", "setting": "HFD-fed C57BL/6J mice [2]; 40 mg/kg/day", "result": "0.37 ± 0.38", "unit": "g"}, {"measurement": "weight of visceral fat", "setting": "HFD-fed C57BL/6J mice [2]; 10 mg/kg/day", "result": "decrease"}, {"measurement": "weight of visceral fat", "setting": "HFD-fed C57BL/6J mice [2]; 20 mg/kg/day", "result": "decrease"}, {"measurement": "weight of visceral fat", "setting": "HFD-fed C57BL/6J mice [2]; 40 mg/kg/day", "result": "decrease"}, {"measurement": "mRNA level of PEPCK", "setting": "PEPCK mRNA; 10 mg/kg/day", "result": "decreased"}, {"measurement": "mRNA level of PEPCK", "setting": "PEPCK mRNA; 20 mg/kg/day", "result": "decreased"}, {"measurement": "mRNA level of PEPCK", "setting": "PEPCK mRNA; 40 mg/kg/day", "result": "decreased"}, {"measurement": "mRNA level of apo C-III", "setting": "apo C-III mRNA; 10 mg/kg/day", "result": "decreased"}, {"measurement": "mRNA level of apo C-III", "setting": "apo C-III mRNA; 20 mg/kg/day", "result": "decreased"}, {"measurement": "mRNA level of apo C-III", "setting": "apo C-III mRNA; 40 mg/kg/day", "result": "decreased"}, {"measurement": "mRNA level of DGAT2", "setting": "DGAT2 mRNA; 10 mg/kg/day", "result": "decreased"}, {"measurement": "mRNA level of DGAT2", "setting": "DGAT2 mRNA; 20 mg/kg/day", "result": "decreased"}, {"measurement": "mRNA level of DGAT2", "setting": "DGAT2 mRNA; 40 mg/kg/day", "result": "decreased"}]}]}
